Experimental data: PubChem BioAssay (NCI)
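Dose response: 5 concentrations. Exposure: 48 h. Format: 96-well plates. Endpoint: linear interpolation; highest concentration if not reached. Definition used: TGI = concentration required for complete inhibition of growth.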

Columns and labels:
Test in all cases: inhibition of tumour cell growth, NCI panel, 48 h
[1] = test system: HL-60(TB) leukemia
[2] = test system: SR leukemia
[3] = test system: MDA-MB-231 breast
[4] = test system: TK-10 renal
[5] = test system: RPMI-8226 leukemia
[6] = test system: CCRF-CEM leukemia
[7] = test system: OVCAR-3 ovarian
[8] = test system: COLO 205 colon
[9] = test system: SNB-75 CNS
[10] = test system: LOX IMVI melanoma
[11] = test system: HOP-92 NSCLC

| Compound | TGI [1] [µM] | TGI [2] [µM] | TGI [3] [µM] | TGI [4] [µM] | TGI [5] [µM] | TGI [6] [µM] | TGI [7] [µM] | TGI [8] [µM] | TGI [9] [µM] | TGI [10] [µM] | TGI [11] [µM] |
| --- | --- | --- | --- | --- | --- | --- | --- | --- | --- | --- | --- |
| O/N=C1/C2CC3CC1(c1ccccc1)CC(/C3=N/O)/C2=N\O (centres undefined) | > 100 | > 100 | > 100 | > 100 | > 100 | > 100 | > 100 | > 100 | > 100 | > 100 | – |
| Oc1nc(N/N=C/c2ccccc2)[nH]c1/C=C1\C=Nc2ccccc21 | > 100 | – | > 100 | > 100 | > 100 | 74.3 | > 100 | > 100 | > 100 | > 100 | > 100 |
| CCOP(=O)(OCC)C1(O)CC(n2cc(C)c(=O)[nH]c2=O)OC1CO (centres undefined) | > 100 | > 100 | – | > 100 | > 100 | – | > 100 | > 100 | > 100 | > 100 | > 100 |
| C/C=C/[C@H]1O[C@@](O)([C@@H](C)[C@H](O)[C@H](C)[C@H]2OC(=O)/C(OC)=C/C(C)=C/[C@@H](C)[C@@H](O)[C@@H](CC)[C@@H](O)[C@H](C)C/C(C)=C/C=C/[C@@H]2OC)C[C@H](OC2CC(O)C(OC(N)=O)C(C)O2)[C@@H]1C (some centres undefined) | – | – | 22.7 | 31.7 | 0.205 | 0.723 | 17.2 | 4.91 | 21.9 | 0.0614 | 2.4 |
| CCNc1ncnc2c1nnn2CC | > 100 | – | > 100 | > 100 | > 100 | > 100 | > 100 | > 100 | > 100 | > 100 | > 100 |
| COc1ccc2c(-c3ccc(OCCN(C)C)cc3)c(Oc3ccc(Cl)cc3)c(=O)oc2c1 | – | 5.06 | 33.5 | 26.4 | 14.8 | 23.1 | 21 | 10.5 | 27.6 | 4.3 | 32.5 |
| CC(=O)Nc1ccc(C(=O)N2N=C(C)/C(=C/c3cccc([N+](=O)[O-])c3)C2=O)cc1 | > 100 | > 100 | – | > 100 | > 100 | > 100 | > 100 | > 100 | > 100 | > 100 | – |
| CN(/N=N/c1nc[nH]c1C(N)=O)C1CCCCC1 | > 100 | > 100 | – | > 100 | > 100 | > 100 | > 100 | > 100 | > 100 | > 100 | > 100 |
| OC(CCN1CCN(CCOC(c2ccccc2)c2ccccc2)CC1)c1ccc(Br)cc1 (centres undefined) | 28.8 | – | 25.3 | 26.9 | – | 45.3 | 28 | 3.38 | 27.5 | 23.5 | 25.1 |
| CC(C)C(C/C=C1/CC(CO)(COC(=O)C2CCCCC2)OC1=O)C(C)C (centres undefined) | – | > 100 | 37.4 | 37.4 | – | 63.2 | 34.5 | 20.9 | 28.8 | 29.4 | 29.8 |
| COC(=O)/C(=C\c1ccco1)P(=O)(OC)OC | – | > 100 | > 100 | > 100 | > 100 | 94.2 | 81.6 | > 100 | > 100 | 71 | 91.9 |
| C=CCC1(CC)C(=O)NC(=O)NC1=O | > 100 | > 100 | – | > 100 | > 100 | > 100 | > 100 | > 100 | > 100 | > 100 | – |
| CC(C)(C)OC(=O)NCC(=O)NC1C/C(=N\O)c2sccc21 (centres undefined) | > 100 | > 100 | > 100 | > 100 | – | > 100 | > 100 | > 100 | > 100 | > 100 | – |
| CC(=O)O[C@H]1CN(S(=O)(=O)c2ccc(C)cc2)C[C@@H]1C1CCCCC1 | – | > 100 | 82.7 | 72.2 | 79.7 | > 100 | 43.5 | > 100 | 63.1 | 49.2 | 82.4 |
| COc1cccc(NC(=O)CC(=O)NNCC(=O)Nc2nnc(-c3ccc(N(CCC#N)S(=O)(=O)c4ccccc4)cc3)s2)c1 | – | > 100 | – | > 100 | > 100 | – | > 100 | > 100 | – | > 100 | > 100 |
| C=C(Br)CNCC(=C)Br | > 100 | > 100 | > 100 | > 100 | > 100 | > 100 | > 100 | > 100 | > 100 | > 100 | – |
| Cc1c(C#N)c2nnn(-c3ccccc3)c(=O)n2c1-c1ccccc1 | – | 19.3 | > 100 | > 100 | 14.8 | > 20.7 | 16.2 | 3.41 | 18.2 | > 100 | > 100 |

| Compound | TGI [1] [µM] | TGI [2] [µM] | TGI [3] [µM] | TGI [4] [µM] | TGI [5] [µM] | TGI [6] [µM] | TGI [7] [µM] | TGI [8] [µM] | TGI [9] [µM] | TGI [10] [µM] | TGI [11] [µM] |
| --- | --- | --- | --- | --- | --- | --- | --- | --- | --- | --- | --- |
| CC(C)=Nn1cnc(C(=N)C#N)c1N | > 100 | > 100 | – | > 100 | > 100 | > 100 | > 100 | > 100 | > 100 | – | – |
| Cc1occ2c1C(=O)CC1C2[C@@H](O)CC2C(C)(C)CCC[C@]12C (some centres undefined) | > 100 | > 100 | – | – | > 100 | > 100 | – | > 100 | > 100 | – | > 100 |
| CCC(=O)NC(OCC1(CC)COC1)(C(F)(F)F)C(F)(F)F | > 100 | > 100 | > 100 | > 100 | > 100 | > 100 | > 100 | – | > 100 | > 100 | – |
| N#CC12C(=O)N3C(=NC(c4ccccc4)NC3c3ccccc3)C1(C#N)C(c1ccccc1)NC1=C2CCCC1 (centres undefined) | > 100 | – | > 100 | > 100 | > 100 | 77.8 | > 100 | > 100 | > 100 | > 100 | > 100 |
| C#CCSc1nc(N)c2ncn(C3OC(COP(=O)(O)O)C(O)C3O)c2n1 (centres undefined) | > 239 | > 239 | – | > 239 | > 239 | > 239 | > 239 | > 239 | > 239 | > 239 | > 239 |
| Cc1cc(C)c2c(=N)c3ccccc3n(CCCCCCO)c2n1 | 6.19 | – | 15.1 | 17.9 | 4.29 | 9.64 | 25.9 | 2.84 | 5.78 | 5.17 | 16 |
| O=C1c2ccccc2-c2nc(-c3ccccc3)cc3c2c1nc1ccccc13 | 15 | 11.9 | 59.3 | 42.5 | 22 | 28.2 | 2.43 | 65.3 | – | 10 | – |
| Cc1ccc(S(=O)(=O)c2ccc([N+](=O)[O-])o2)cc1 | – | – | 4.78 | 3.04 | – | 1.21 | 3.71 | 2.27 | 11.8 | 2.91 | 4.32 |
| COc1cc(OC)cc(-n2c(N)c(-c3nc4ccccc4n3C)c3ccc([N+](=O)[O-])cc3c2=O)c1 | – | – | > 100 | > 100 | > 100 | – | – | > 100 | 63.9 | > 100 | 68 |
| CCOC(=O)c1c(N2CCOCC2)[nH]c(=O)c(C(c2cccs2)c2c(O)c(C(=O)OCC)c(N3CCOCC3)[nH]c2=O)c1O | – | > 100 | > 100 | > 100 | > 100 | > 100 | > 100 | > 100 | > 100 | > 100 | > 100 |
| O=S(=O)(O)c1cc(O)c2c(O)c(N=Nc3cccc4ccccc34)c(S(=O)(=O)O)cc2c1 | – | > 100 | > 100 | > 100 | > 100 | – | > 100 | > 100 | > 100 | > 100 | > 100 |
| O=C(O)c1cc(Cl)cc2c1NC1(N2)C(=O)Nc2ccccc21 (centres undefined) | – | > 100 | > 100 | > 100 | > 100 | > 100 | > 100 | > 100 | > 100 | > 100 | > 100 |
| COC(=O)C1=C(C)N(NC(=O)c2ccccc2)C2(O)CCCC(=O)C12C (centres undefined) | – | – | – | > 100 | > 100 | – | > 100 | > 100 | > 100 | > 100 | > 100 |
| COc1cc(/C=C2\Cc3cc(OC)c(OC)cc3C2=O)cc(OC)c1 | > 100 | – | > 100 | > 100 | > 100 | > 100 | > 100 | > 100 | > 100 | > 100 | > 57.5 |
| N#CC1(c2ccccc2)CCN(C2(c3ccccc3)CCCCC2)CC1 | > 100 | > 100 | > 100 | > 100 | > 100 | > 100 | > 100 | > 100 | > 100 | > 100 | – |
| Cc1ccc(N=C2SC(c3ccc(C)cc3)(c3ccc(C)cc3)c3ccccc32)cc1 | > 100 | – | > 100 | > 100 | > 100 | > 100 | > 100 | > 100 | > 100 | > 100 | > 100 |
